Patent US20140048061A1, “SYSTEM AND METHOD FOR ADMINISTERING ANESTHETICS WHILE PERFORMING CPR” (priority 2012, published 2014)
Marks after values point to notes of the source that are not given here.

What was measured:
[1] = test system: pigs experiencing induced cardiac arrest; experiment: Pigs in induced VF cardiac arrest, untreated for 20 minutes, given inhaled isoflurane at the start of conventional manual CPR; assay type: in vivo
Protocol: As an example, Applicants conducted experiments on pigs experiencing induced cardiac arrest. Cardiac arrest was induced by generating ventricular fibrillation (VF) and pigs were left in untreated cardiac arrest for 20 minutes. At the initiation of conventional manual CPR, inhaled isoflurane at 4% was introduced via an anesthesia machine for a total of 3 minutes. The anesthesia was then turned off. After a total of 4 minutes of CPR the animals were then shocked back into a stable perfusing heart rhythm and the dose of isoflurane anesthesia was restarted at 1% to provide for anesthesia during the recovery period of the animals. […] Cardiac function based upon an assessment of the left ventricular (LV) ejection fraction (EF) after 1 and 4 hours was normal, as determined by echocardiography, and post resuscitation inotropic support was unnecessary due to the absence of hemodynamic instability. Two of the 4 animals had undetectable levels of markers of cardiac injury (creatinine phosphokinase MB and cardiac troponin [cTnI]), while 2 of the 4 animals had mild elevations of markers of cardiac injury (creatinine phosphokinase MB and cTnI) at 4 hours post ROSC (6.8±9 and 5.8±11 in ng/mL, respectively). […] Although the duration of untreated VF in the control animals was 5 minutes shorter, post ROSC left ventricular function was severely compromised (EF: 33±9%) and there was significant elevation of CKMB and cTnI at 4 hours post ROSC (26.5±13.7 and 31.2±14.3, p<0.05) compared to isoflurane treated animals resuscitated after 20 minutes of untreated VF. In the absence of anesthesia during CPR as described above, Applicants were been unable to resuscitate pigs after 20 minutes of untreated arrest with conventional CPR. These findings represent an important advance in the field of CPR.

[2] = at 37° C.; cited from earlier work
[3] = test system: animals after cardiac arrest and ROSC; experiment: Second cardiac arrest/CPR experiment, sevoflurane-treated (SPoC) vs control: left ventricle ejection fraction post ROSC; assay type: in vivo, pigs; details: *P<0.05 vs controls
Protocol: (§1) Another experiment was conducted with similar results. In that experiment, the hearts were subsequently removed from 5 animals from each group 15 minutes post-ROSC for mitochondrial function testing. Compared with the control group, all mitochondrial function tests were improved in the sevoflurane treated animals.
(§2) Table 1 illustrates the mitochondrial function for complex I substrates pyruvate (P, 10 mM) and malate (M, 10 mM) and complex II substrate succinate (Suc, 10 mM) in control hearts vs. sevoflurane-treated hearts (SPoC). LVEF refers to the left ventricle ejection fraction percentage at 12 min post return of spontaneous circulation (ROSC). RCI refers to the respiratory control index (state 3/state 4 respiration). ATP refers to adenosine triphosphate synthesis and Ca Ret refers to calcium retention capacity until mitochondrial transition pore opening. The asterisk (*) refers to P of less than 0.05.

[4] = test system: heart mitochondria (complex I and complex II substrates); experiment: Mitochondrial function testing of hearts removed 15 minutes post-ROSC; assay type: in vivo, pigs
Protocol: as §1, §2

[5] = 4 hours post ROSC, 2 of 4 animals undetectable, 2 of 4 mild elevations
[6] = pyruvate 10 mM and malate 10 mM

**Q.** What does the source list for `FC(F)OC(Cl)C(F)(F)F` (centres unmarked) [isoflurane]?
**A.** cardiac troponin cTnI (marker of cardiac injury) [1, 5]: 5.8 ± 11 ng/mL; creatinine phosphokinase MB (marker of cardiac injury) [1, 5]: 6.8 ± 9 ng/mL; post resuscitation inotropic support ([1]; absence of hemodynamic instability): unnecessary; cardiac function based on left ventricular (LV) ejection fraction (EF) ([1]; after 1 and 4 hours, by echocardiography): normal; shocks needed to achieve return of spontaneous circulation (ROSC) ([1]; all 4 animals, 20 min untreated VF, isoflurane 4% for 3 min, after 4 min CPR and one dose of 0.5 mg epinephrine): 1-2 shocks

**Q.** What does the source list for `FCOC(C(F)(F)F)C(F)(F)F` [sevoflurane]?
**A.** blood gas partition coefficient [2]: 0.65; LVEF (%) 12 min Post ROSC [3]: 53 ± 16* %; all mitochondrial function tests compared with the control group ([4]; 5 animals per group, hearts removed 15 min post-ROSC): improved; RCI P/M (respiratory control index, state 3/state 4 respiration) ([4]; complex I substrates pyruvate 10 mM and malate 10 mM, hearts removed 15 min post-ROSC): 11.4 ± 0.5*; RCI Suc (respiratory control index) ([4]; complex II substrate succinate 10 mM, hearts removed 15 min post-ROSC): 4.5 ± 0.2*; ATP P/M (adenosine triphosphate synthesis) [4, 6]: 148.5 ± 24.8* nm/min/mg; Ca Ret P/M (calcium retention capacity until mitochondrial transition pore opening) [4, 6]: 318.8 ± 45.0* nm/min/mg; ATP Suc (adenosine triphosphate synthesis) ([4]; succinate 10 mM): 132.3 ± 18.4* nm/min/mg; Ca Ret Suc (calcium retention capacity until mitochondrial transition pore opening) ([4]; succinate 10 mM): 474.0 ± 58.8* nm/min/mg
